US9777003B2, “Tricyclic heterocycles as bet protein inhibitors” (Incyte Corporation, priority 2013, dated 2017)
Structures can show the parent of a compound that is named as a salt.

How the values were obtained:
BRD4-BD1 = BRD4-BD1 (Homo sapiens (Human), UniProt O60885); test: BRD4 AlphaScreen assay, BRD4-BD1; type: binding; conditions: biotin-labeled tetra-acetylated histone H4 peptide, 75 min, room temperature, read-out: BRD4 BD-1 enzyme IC50
Summary of the method: (§1)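 AlphaScreen displacement of 50 nM biotin-tetra-acetylated H4 peptide from 3.8 nM BRD4-BD1 (1.25% DMSO) or 20 nM BRD4-BD2 (0.83% DMSO) in HEPES pH 7.4 buffer, 75 min RT. Streptavidin donor/GSH acceptor beads added, 75 min dark; IC50 from log-concentration curve fit.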

BRD4-BD2 = BRD4-BD2 (Homo sapiens (Human), UniProt O60885); test: BRD4 AlphaScreen assay, BRD4-BD2; type: binding; conditions: biotin-labeled tetra-acetylated histone H4 peptide, 75 min, room temperature, read-out: BRD4 BD-2 enzyme IC50
Summary of the method: as §1

| SMILES | IC50 (BRD4-BD1) [nM] | IC50 (BRD4-BD2) [nM] |
| --- | --- | --- |
| Cc1nnc2ccc3c(cc(-c4ccn(C5(CC#N)CN(S(C)(=O)=O)C5)n4)n3Cc3ccccc3)n12 [Example 92, [3-[3-(6-benzyl-1-methyl-6H-pyrrolo[2,3-e][1,2,4]triazolo[4,3-a]pyridin-7-yl)-1H-pyrazol-1-yl]-1-(methylsulfonyl)azetidin-3-yl]acetonitrile] | ≤ 100 | ≤ 100 |
| Cc1nnc2ccc3c(cc(-c4ccn(C5(CC#N)CN(C)C5)n4)n3Cc3ccccc3)n12 [Example 93, {3-[3-(6-benzyl-1-methyl-6H-pyrrolo[2,3-e][1,2,4]triazolo[4,3-a]pyridin-7-yl)-1H-pyrazol-1-yl]-1-methylazetidin-3-yl}acetonitrile] | ≤ 100 | ≤ 100 |
| Cc1nnc2ccc3c(cc(C(=O)N(C)C)n3Cc3ccccc3)n12 [Example 94, 6-benzyl-N,N,1-trimethyl-6H-pyrrolo[2,3-e][1,2,4]triazolo[4,3-a]pyridine-7-carboxamide] | 100 to 1000 | 100 to 1000 |
| Cc1nnc2ccc3c(cc(-c4ccn(CCC(=O)N(C)C)n4)n3Cc3ccccc3)n12 [Example 95, 3-[3-(6-benzyl-1-methyl-6H-pyrrolo[2,3-e][1,2,4]triazolo[4,3-a]pyridin-7-yl)-1H-pyrazol-1-yl]-N,N-dimethylpropanamide] | ≤ 100 | ≤ 100 |
| CCNC(=O)CCn1ccc(-c2cc3c(ccc4nnc(C)n43)n2Cc2ccccc2)n1 [Example 96, 3-[3-(6-benzyl-1-methyl-6H-pyrrolo[2,3-e][1,2,4]triazolo[4,3-a]pyridin-7-yl)-1H-pyrazol-1-yl]-N-ethylpropanamide] | ≤ 100 | ≤ 100 |
| Cc1nnc2ccc3c(cc(-c4ccn(CCC(N)=O)n4)n3Cc3ccccc3)n12 [Example 98, 3-[3-(6-benzyl-1-methyl-6H-pyrrolo[2,3-e][1,2,4]triazolo[4,3-a]pyridin-7-yl)-1H-pyrazol-1-yl]propanamide] | ≤ 100 | ≤ 100 |
| Cc1nnc2ccc3c(cc(-c4ccn(CCC(=O)N(C)C)n4)n3Cc3cccc(Cl)c3)n12 [Example 103, 3-{3-[6-(3-chlorobenzyl)-1-methyl-6H-pyrrolo[2,3-e][1,2,4]triazolo[4,3-a]pyridin-7-yl]-1H-pyrazol-1-yl}-N,N-dimethylpropanamide] | ≤ 100 | ≤ 100 |
| Cc1nnc2ccc3c(cc(-c4ccn(CCC(=O)N5CCC5)n4)n3Cc3cccc(Cl)c3)n12 [Example 104, 7-[1-(3-azetidin-1-yl-3-oxopropyl)-1H-pyrazol-3-yl]-6-(3-chlorobenzyl)-1-methyl-6H-pyrrolo[2,3-e][1,2,4]triazolo[4,3-a]pyridine] | ≤ 100 | ≤ 100 |
| Cc1nnc2ccc3c(cc(-c4ccn(CCC(=O)N5CCN(C)CC5)n4)n3Cc3cccc(Cl)c3)n12 [Example 105, 6-(3-chlorobenzyl)-1-methyl-7-{1-[3-(4-methylpiperazin-1-yl)-3-oxopropyl]-1H-pyrazol-3-yl}-6H-pyrrolo[2,3-e][1,2,4]triazolo[4,3-a]pyridine] | ≤ 100 | ≤ 100 |
| Cc1nnc2ccc3c(cc(C(=O)NCC4CC4)n3Cc3cccc(Cl)c3)n12 [Example 114, 6-(3-Chlorobenzyl)-N-(cyclopropylmethyl)-1-methyl-6H-pyrrolo[2,3-e][1,2,4]triazolo[4,3-a]pyridine-7-carboxamide Trifluoroacetate Salt] | ≤ 100 | ≤ 100 |
| Cc1nnc2ccc3c(cc(C(=O)N4CCOCC4)n3Cc3cccc(Cl)c3)n12 [Example 116, 6-(3-Chlorobenzyl)-1-methyl-7-(morpholin-4-ylcarbonyl)-6H-pyrrolo[2,3-e][1,2,4]triazolo[4,3-a]pyridine Trifluoroacetate Salt] | 1000 to 10000 | 1000 to 10000 |
| CCNC(=O)c1cc2c(ccc3nnc(C)n32)n1Cc1cccc(CN2CCC2)c1 [Example 121, 6-[3-(Azetidin-1-ylmethyl)benzyl]-N-ethyl-1-methyl-6H-pyrrolo[2,3-e][1,2,4]triazolo[4,3-a]pyridine-7-carboxamide bis(trifluoroacetate) Salt] | ≤ 100 | ≤ 100 |
| CNC(=O)c1cc2c(ccc3nnc(C)n32)n1Cc1cccc(CN2CCC2)c1 [Example 122, 6-[3-(Azetidin-1-ylmethyl)benzyl]-N,1-dimethyl-6H-pyrrolo[2,3-e][1,2,4]triazolo[4,3-a]pyridine-7-carboxamide bis(trifluoroacetate) Salt] | ≤ 100 | ≤ 100 |

Further lines, results first:

| IC50 (BRD4-BD1) [nM] | IC50 (BRD4-BD2) [nM] | SMILES |
| --- | --- | --- |
| ≤ 100 | ≤ 100 | Cc1nnc2ccc3c(cc(-c4ccn(C5(CC#N)CNC5)n4)n3Cc3ccccc3)n12 [Example 90, {3-[3-(6-benzyl-1-methyl-6H-pyrrolo[2,3-e][1,2,4]triazolo[4,3-a]pyridin-7-yl)-1H-pyrazol-1-yl]azetidin-3-yl}acetonitrile] |
| ≤ 100 | ≤ 100 | CC(=O)N1CC(CC#N)(n2ccc(-c3cc4c(ccc5nnc(C)n54)n3Cc3ccccc3)n2)C1 [Example 91, {1-acetyl-3-[3-(6-benzyl-1-methyl-6H-pyrrolo[2,3-e][1,2,4]triazolo[4,3-a]pyridin-7-yl)-1H-pyrazol-1-yl]azetidin-3-yl}acetonitrile] |
| ≤ 100 | ≤ 100 | CNC(=O)c1cc2c(ccc3nnc(C)n32)n1Cc1cccc(Cl)c1 [Example 99, 6-(3-chlorobenzyl)-N,1-dimethyl-6H-pyrrolo[2,3-e][1,2,4]triazolo[4,3-a]pyridine-7-carboxamide] |
| ≤ 100 | ≤ 100 | Cc1nnc2ccc3c(cc(C(=O)N[C@H]4C[C@H](C#N)C4)n3Cc3ccccc3)n12 [Example 100, 6-benzyl-N-(trans-3-cyanocyclobutyl)-1-methyl-6H-pyrrolo[2,3-e][1,2,4]triazolo[4,3-a]pyridine-7-carboxamide] |
| 100 to 1000 | 100 to 1000 | Cc1nnc2ccc3c(cc(C(=O)N[C@H]4C[C@@H](C#N)C4)n3Cc3ccccc3)n12 [Example 101, 6-benzyl-N-(cis-3-cyanocyclobutyl)-1-methyl-6H-pyrrolo[2,3-e][1,2,4]triazolo[4,3-a]pyridine-7-carboxamide] |
| ≤ 100 | ≤ 100 | CNC(=O)c1cc2c(ccc3nnc(C)n32)n1Cc1cccc(F)c1 [Example 102, 6-(3-fluorobenzyl)-N,1-dimethyl-6H-pyrrolo[2,3-e][1,2,4]triazolo[4,3-a]pyridine-7-carboxamide] |
| ≤ 100 | ≤ 100 | CC(=O)N1CC(CC#N)(n2ccc(-c3cc4c(ccc5nnc(C)n54)n3Cc3cccc(Cl)c3)n2)C1 [Example 106, (1-acetyl-3-{3-[6-(3-chlorobenzyl)-1-methyl-6H-pyrrolo[2,3-e][1,2,4]triazolo[4,3-a]pyridin-7-yl]-1H-pyrazol-1-yl}azetidin-3-yl)acetonitrile] |
| ≤ 100 | ≤ 100 | Cc1nnc2ccc3c(cc(-c4ccn(C5(CC#N)CN(S(C)(=O)=O)C5)n4)n3Cc3cccc(Cl)c3)n12 [Example 107, [3-{3-[6-(3-chlorobenzyl)-1-methyl-6H-pyrrolo[2,3-e][1,2,4]triazolo[4,3-a]pyridin-7-yl]-1H-pyrazol-1-yl}-1-(methylsulfonyl)azetidin-3-yl]acetonitrile] |
| ≤ 100 | ≤ 100 | CC(=O)N1CC(n2ccc(-c3cc4c(ccc5nnc(C)n54)n3Cc3cccc(Cl)c3)n2)C1 [Example 108, 7-[1-(1-acetylazetidin-3-yl)-1H-pyrazol-3-yl]-6-(3-chlorobenzyl)-1-methyl-6H-pyrrolo[2,3-e][1,2,4]triazolo[4,3-a]pyridine] |
| 100 to 1000 | 100 to 1000 | Cc1nnc2ccc3c(cnn3Cc3ccccc3)n12 [Example 112, 6-benzyl-1-methyl-6H-pyrazolo[3,4-e][1,2,4]triazolo[4,3-a]pyridine] |
| ≤ 100 | ≤ 100 | CCNC(=O)c1cc2c(ccc3nnc(C)n32)n1Cc1cccc(Cl)c1 [Example 113, 6-(3-Chlorobenzyl)-N-ethyl-1-methyl-6H-pyrrolo[2,3-e][1,2,4]triazolo[4,3-a]pyridine-7-carboxamide Trifluoroacetate Salt] |
| 100 to 1000 | 100 to 1000 | Cc1nnc2ccc3c(cc(C(=O)NCCN(C)C)n3Cc3cccc(Cl)c3)n12 [Example 115, 6-(3-Chlorobenzyl)-N-[2-(dimethylamino)ethyl]-1-methyl-6H-pyrrolo[2,3-e][1,2,4]triazolo[4,3-a]pyridine-7-carboxamide bis(trifluoroacetate) Salt] |
| ≤ 100 | ≤ 100 | Cc1nnc2ccc3c(cc(C(=O)NCCO)n3Cc3cccc(Cl)c3)n12 [Example 117, 6-(3-Chlorobenzyl)-N-(2-hydroxyethyl)-1-methyl-6H-pyrrolo[2,3-e][1,2,4]triazolo[4,3-a]pyridine-7-carboxamide Trifluoroacetate Salt] |
| 100 to 1000 | 100 to 1000 | Cc1nnc2ccc3c(cc(C(=O)NC4CN(C)C4)n3Cc3cccc(Cl)c3)n12 [Example 118, 6-(3-Chlorobenzyl)-1-methyl-N-(1-methylazetidin-3-yl)-6H-pyrrolo[2,3-e][1,2,4]triazolo[4,3-a]pyridine-7-carboxamide bis(trifluoroacetate) Salt] |
| ≤ 100 | ≤ 100 | Cc1nnc2ccc3c(cc(C(=O)NCCN4CCOCC4)n3Cc3cccc(Cl)c3)n12 [Example 119, 6-(3-Chlorobenzyl)-1-methyl-N-(2-morpholin-4-ylethyl)-6H-pyrrolo[2,3-e][1,2,4]triazolo[4,3-a]pyridine-7-carboxamide Trifluoroacetate Salt] |
| 100 to 1000 | 100 to 1000 | Cc1nnc2ccc3c(cc(C(=O)NC(C)(C)C)n3Cc3cccc(Cl)c3)n12 [Example 120, N-(tert-Butyl)-6-(3-chlorobenzyl)-1-methyl-6H-pyrrolo[2,3-e][1,2,4]triazolo[4,3-a]pyridine-7-carboxamide Trifluoroacetate Salt] |
